For 63 molecules, IC50 results are on record in patent US9567339B2, “Primary carboxamides as BTK inhibitors” (AbbVie Inc., priority 2013, dated 2017).

Molecules are shown by their SMILES. pIC50: −log10 of the molar value.

The target in the first assay is BTK, recombinant human catalytic domain (aa 393-659) (Homo sapiens (Human), UniProt Q06187). As to the kind of experiment: In vitro BTK kinase activity measured by time-resolved fluorescence resonance energy transfer (trFRET). Format: biochemical. Conditions: read-out: Btk IC50.
BTK, recombinant human catalytic domain (aa 393-659), sequence (Q06187 393-659): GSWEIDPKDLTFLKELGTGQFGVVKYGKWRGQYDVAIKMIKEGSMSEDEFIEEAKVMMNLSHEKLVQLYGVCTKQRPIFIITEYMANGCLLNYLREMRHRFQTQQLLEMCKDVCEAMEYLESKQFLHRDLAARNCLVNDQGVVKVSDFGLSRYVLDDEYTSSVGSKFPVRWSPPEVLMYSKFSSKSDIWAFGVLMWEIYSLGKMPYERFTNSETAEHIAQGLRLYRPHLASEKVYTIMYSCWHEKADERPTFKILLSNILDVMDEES
Turning to `CCC(Cl)C(=O)Nc1cccc(-c2ccc(C(N)=O)c3[nH]c(C4=CCN(S(C)(=O)=O)CC4)cc23)c1C` (stereo not drawn) [D.7.26], the pIC50 (usually the IC50 on a negative log10 scale, so that one unit is a factor of ten) is over 7.00.

For `Cc1c(NC(=O)COc2cccnc2)cccc1-c1ccc(C(N)=O)c2[nH]c(C3=CCN(S(C)(=O)=O)CC3)cc12` [D.7.14], the pIC50 was over 7.00.

`C=CC(=O)N1CCOC[C@@H](c2cnc(C(N)=O)c3[nH]ccc23)C1` [Example 3.1]: the pIC50 was 6.00 to 7.00.

For the molecule `C=CC(=O)N1CCC[C@@H](c2ncc(C(N)=O)c3[nH]ccc23)C1` [E.9.32], the pIC50 is over 7.00.

For the molecule `Cc1c(NC(=O)C(C)C)cccc1-c1ccc(C(N)=O)c2[nH]c(C3=CCN(S(C)(=O)=O)CC3)cc12` [D.7.40], the pIC50 was over 7.00.

In the case of `Cn1cc(-c2cc3c(N4CCC[C@@H](NC(=O)c5ccc(C(C)(C)C(N)=O)cc5)C4)ccc(C(N)=O)c3[nH]2)cn1` [O.1.23*], the pIC50 is 6.00 to 7.00.

On to `C=CC(=O)N1CC(Nc2cnc(C(N)=O)c3[nH]ccc23)C1` [E.9.34], for which the pIC50 is over 7.00.

For the molecule `C=CC(=O)Nc1cc(-c2ccc(C(N)=O)c3[nH]ccc23)ccc1C#N` [E.1.31], the pIC50 was over 7.00.

Consider `C=CC(=O)N(Cc1nccs1)c1cccc(-c2ccc(C(N)=O)c3[nH]c(C4=CCN(S(C)(=O)=O)CC4)cc23)c1C` [E.1.7], for which the pIC50 is over 7.00.

Regarding `C=CC(=O)N1CC[C@H](c2ccc(C(N)=O)c3[nH]c(-c4cc5n(n4)CCOC5)cc23)C1` [E.9.26], the pIC50 was over 7.00.

For `Cc1c(NC(=O)/C=C/CN2CCCCC2)cccc1-c1ccc(C(N)=O)c2[nH]ccc12` [J.1.1], the pIC50 is 6.00 to 7.00.

With `C=CC(=O)N1CCC[C@H](c2ccc(C(N)=O)c3[nH]c(-c4cnn(C)c4)cc23)C1` [Example 4.2], the pIC50 is over 7.00.

As to `C=CC(=O)N1CC(N(C)c2ccc(C(N)=O)c3[nH]c(C)cc23)C1` [E.9.25], the pIC50 was over 7.00.

Consider `C=CC(=O)N1CCOC[C@@H](c2ccc(C(N)=O)c3[nH]ccc23)C1` [E.9.38], for which the pIC50 is over 7.00.

For `Cc1c(NC(=O)CCN2CCCC2)cccc1-c1ccc(C(N)=O)c2[nH]c(C3=CCN(S(C)(=O)=O)CC3)cc12` [D.7.12], the pIC50 was over 7.00.

As for `Cc1c(NC(=O)/C=C\Cl)cccc1-c1ccc(C(N)=O)c2[nH]c(C3=CCN(S(C)(=O)=O)CC3)cc12` [D.7.17], the pIC50 was over 7.00.

As to `CCOC(=O)N1CC=C(c2cc3c(-c4cccc(-n5cnc6ccccc6c5=O)c4C)ccc(C(N)=O)c3[nH]2)CC1` [E.6.2], the pIC50 is over 7.00.

Regarding `NC(=O)c1ccc(N2CCC[C@@H](NC(=O)c3ccc(C(F)(F)F)cc3)C2)c2cc[nH]c12` [O.1.8*], the pIC50 was 5.00 to 6.00.

Turning to `C=CC(=O)N1CCC[C@@H](c2ccc(C(N)=O)c3[nH]c(C)cc23)C1` [E.9.7], the pIC50 was over 7.00.

For the molecule `C=CC(=O)N1CCO[C@H](c2ccc(C(N)=O)c3[nH]c(-c4cnn(C)c4)cc23)C1` [E.9.23], the pIC50 was over 7.00.

`C=CC(=O)NCc1ccccc1-c1ccc(C(N)=O)c2[nH]c(C3=CCN(S(C)(=O)=O)CC3)cc12` [E.1.1]: the pIC50 was over 7.00.

On to `C=CC(=O)N1CCC[C@H](c2ccc(C(N)=O)c3[nH]c(C)cc23)C1` [E.9.8], for which the pIC50 was over 7.00.

Take `Cc1c(-c2ccc(C(N)=O)c3[nH]c(-c4cnn(CCO)c4)cc23)cccc1-n1cnc2ccccc2c1=O` [M.1.2]: the pIC50 was over 7.00.

As for `C=CC(=O)N1CC(N(C)c2ccc(C(N)=O)c3[nH]c(-c4cc5n(n4)CCOC5)cc23)C1` [E.9.4], the pIC50 is over 7.00.

As for `Cc1c(NC(=O)c2cccnc2)cccc1-c1ccc(C(N)=O)c2[nH]c(C3=CCN(S(C)(=O)=O)CC3)cc12` [D.7.39], the pIC50 was over 7.00.

`C=CC(=O)N1CCC[C@H](c2cnc(C(N)=O)c3[nH]ccc23)C1` [E.9.52]: the pIC50 is 6.00 to 7.00.

For the molecule `COC1CCCC(C(=O)Nc2cccc(-c3ccc(C(N)=O)c4[nH]c(C5=CCN(S(C)(=O)=O)CC5)cc34)c2C)C1` (stereo not drawn) [D.7.34], the pIC50 was over 7.00.

As to `COCCNC/C=C/C(=O)Nc1cccc(-c2ccc(C(N)=O)c3[nH]ccc23)c1C` [J.1.3], the pIC50 is 5.00 to 6.00.

The same assay, now with this note: trFRET, 0.001 mM ATP, biotin-TYR1 peptide substrate; read-out: Btk IC50.
As to `Cc1ccc(NC(=O)c2nccs2)cc1-c1ccc(C(N)=O)c2[nH]c(-c3cccnc3)cc12` [A.7.7], the pIC50 was 5.00 to 6.00.

On to `Cc1ccc(-c2cc3c(-c4ccn[nH]4)ccc(C(N)=O)c3[nH]2)cc1` [A.8.8], for which the pIC50 was 6.00 to 7.00.

Consider `C=CC(=O)Nc1cccc(-c2ccc(C(N)=O)c3[nH]c(CCOCC)cc23)c1` [Example 22, 4-(3-Acrylamidophenyl)-2-(2-ethoxyethyl)-1H-indole-7-carboxamide], for which the pIC50 was over 7.00.

Regarding `Cc1c(N)cccc1-c1ccc(C(N)=O)c2[nH]c(C3=CCC(F)(F)CC3)cc12` [Example 21, 4-(3-Amino-2-methylphenyl)-2-(4,4-difluorocyclohex-1-enyl)-1H-indole-7-carboxamide], the pIC50 is over 7.00.

As to `C=CC(=O)Nc1cccc(-c2ccc(C(N)=O)c3[nH]c(-c4ccc(OC)cc4)cc23)c1C` [A.1.23], the pIC50 is over 7.00.

With `C=CC(=O)Nc1cccc(-c2ccc(C(N)=O)c3[nH]c(-c4ccc(CN5CCOCC5)cc4)cc23)c1C` [A.1.44], the pIC50 was over 7.00.

Regarding `C=CC(=O)Nc1cccc(-c2ccc(C(N)=O)c3[nH]c(-c4ccnn4C)cc23)c1C` [A.1.11], the pIC50 was over 7.00.

As to `CC(=O)N1CC=C(c2cc3c(-c4cccc(NC(=O)c5nccs5)c4C)ccc(C(N)=O)c3[nH]2)CC1` [A.3.4], the pIC50 was over 7.00.

Regarding `Cc1c(-c2ccc(C(N)=O)c3[nH]c(-c4ccc(F)cc4)cc23)cccc1-n1cnc2ccccc2c1=O` [A.12.1], the pIC50 is over 7.00.

Take `C=CC(=O)Nc1cccc(-c2ccc(C(N)=O)c3[nH]c(-c4ccc(S(C)(=O)=O)cc4)cc23)c1C` [A.1.40]: the pIC50 was over 7.00.

On to `Cc1c(-c2ccc(C(N)=O)c3[nH]c(C4=CCN(S(C)(=O)=O)CC4)cc23)cccc1-n1cnc2ccccc2c1=O` [A.4.18], for which the pIC50 was over 7.00.

Take `Cc1c(-c2ccc(C(N)=O)c3[nH]c(C4=CCN(C)C4)cc23)cccc1-n1cnc2ccccc2c1=O` [H.1, 2-(1-Methyl-2,5-dihydro-1H-pyrrol-3-yl)-4-(2-methyl-3-(4-oxoquinazolin-3(4H)-yl)phenyl)-1H-indole-7-carboxamide]: the pIC50 is over 7.00.

In the case of `C=CC(=O)Nc1c[nH]c2c(C(N)=O)ccc(-c3cccc(NC(=O)c4nccs4)c3C)c12` [D.3.2], the pIC50 was 5.00 to 6.00.

Consider `Cc1c(-c2ccc(C(N)=O)c3[nH]c(C4=CCNC4)cc23)cccc1-n1cnc2ccccc2c1=O` [G.1, 2-(2,5-Dihydro-1H-pyrrol-3-yl)-4-(2-methyl-3-(4-oxoquinazolin-3(4H)-yl)phenyl)-1H-indole-7-carboxamide], for which the pIC50 was over 7.00.

As for `C=CC(=O)Nc1cccc(-c2ccc(C(N)=O)c3[nH]c(-c4cccc(N(C)C)c4)cc23)c1C` [A.1.27], the pIC50 was over 7.00.

As to `Cc1c(N)cccc1-c1ccc(C(N)=O)c2[nH]c(C3=CCN(S(C)(=O)=O)CC3)cc12` [A.4.5, 4-(3-amino-2-methylphenyl)-2-(1-(methylsulfonyl)-1,2,3,6-tetrahydropyridin-4-yl)-1H-indole-7-carboxamide], the pIC50 was over 7.00.

Take `C=CC(=O)Nc1cccc(-c2ccc(C(N)=O)c3[nH]c(C)cc23)c1` [Example 19, 4-(3-Acrylamidophenyl)-2-methyl-1H-indole-7-carboxamide]: the pIC50 is over 7.00.

In the case of `Cc1c(NC(=O)/C=C/c2nccs2)cccc1-c1ccc(C(N)=O)c2[nH]ccc12` [D.8.5], the pIC50 is 6.00 to 7.00.

As for `N#CCNS(=O)(=O)c1cccc(-c2ccc(C(N)=O)c3[nH]ccc23)c1` [A.6.1], the pIC50 was 5.00 to 6.00.

For `Cc1c(-c2ccc(C(N)=O)c3[nH]c(-c4cnn(C)c4)cc23)cccc1N(C(=O)c1nccs1)C1COC1` [A.10.3, N-(3-(7-carbamoyl-2-(1-methyl-1H-pyrazol-4-yl)-1H-indol-4-yl)-2-methylphenyl)-N-(oxetan-3-yl)thiazole-2-carboxamide], the negative logarithm of the IC50 (pIC50) was over 7.00.

For the molecule `C=C(C)C(=O)NCc1ccccc1-c1cc2c(-c3cccc(NC(=O)c4nccs4)c3C)ccc(C(N)=O)c2[nH]1` [D.1.10], the pIC50 was 5.00 to 6.00.

`COCCNC(=O)/C=C\C(=O)Nc1cccc(-c2ccc(C(N)=O)c3[nH]ccc23)c1` [D.9.1]: the pIC50 is 6.00 to 7.00.

In the case of `C=CC(=O)N1CC([C@H](C)c2ccc(C(N)=O)c3[nH]ccc23)C1` [28 (S), (S)-4-(1-(1-Acryloylazetidin-3-yl)ethyl)-1H-indole-7-carboxamide], the pIC50 is 6.00 to 7.00.

Take `C#CC(=O)N1CC(N(C)c2ccc(C(N)=O)c3[nH]c(C)cc23)C1` [D.10.1]: the pIC50 was over 7.00.

Take `C=CC(=O)Nc1cccc(-c2ccc(C(N)=O)c3[nH]c(-c4ccc5c(c4)CCO5)cc23)c1C` [A.1.21]: the pIC50 was over 7.00.

Regarding `Cc1c(NC(=O)c2nccs2)cccc1-c1ccc(C(N)=O)c2[nH]cc(NC(=O)COc3ccc(F)cc3)c12` [D.3.6], the pIC50 is 5.00 to 6.00.

Regarding `Cc1c(NC(=O)c2ccc(C3CC3)cc2)cccc1-c1ccc(C(N)=O)c2[nH]c(-c3cncnc3)cc12` [A.13.4], the pIC50 is 6.00 to 7.00.

On to `Cc1c(NC(=O)/C=C/C(C)C)cccc1-c1ccc(C(N)=O)c2[nH]ccc12` [D.8.8], for which the pIC50 was 6.00 to 7.00.

`CS(=O)(=O)N1CC=C(c2cc3c(-c4cccc(OCc5nccs5)c4)ccc(C(N)=O)c3[nH]2)CC1` [A.4.4]: the pIC50 is over 7.00.

As to `CN(C)C(=O)/C=C/C(=O)Nc1cccc(-c2ccc(C(N)=O)c3[nH]ccc23)c1` [D.4.2], the pIC50 is 5.00 to 6.00.

In the case of `Cc1c(-c2ccc(C(N)=O)c3[nH]c(-c4cncnc4)cc23)cccc1-n1cnc2ccccc2c1=O` [A.13.1], the pIC50 was 6.00 to 7.00.

In the case of `Cc1noc(C)c1-c1ccc(C(N)=O)c2[nH]c(-c3ccc(F)cc3)cc12` [A.9.3], the pIC50 is 6.00 to 7.00.

Consider `Cc1c(NC(=O)c2ccc(C3CC3)cc2)cccc1-c1ccc(C(N)=O)c2[nH]c(C3=CCN(S(C)(=O)=O)CC3)cc12` [A.4.16], for which the pIC50 was over 7.00.

For `Cc1c(NC(=O)/C=C/C2CC2)cccc1-c1ccc(C(N)=O)c2[nH]ccc12` [D.8.6], the pIC50 was 6.00 to 7.00.

On to `C=CC(=O)Nc1cccc(-c2ccc(C(N)=O)c3[nH]c(-c4ccc(C(=O)OC)cc4)cc23)c1C` [A.1.20], for which the pIC50 is over 7.00.
